# Reference: ChEMBL document CHEMBL1121992, “Synthesis and topical antiinflammatory activity of some steroidal [16 alpha, 17 alpha-d]Isoxazolidines” (1982)
# System: Mus musculus
# Assay: Topical antiinflammatory activity in mice, expressed as potency was determined
# Type: functional
row,Compound,Potency
1,CC(=O)OCC(=O)[C@@]12ON(Cc3ccccc3)C[C@@H]1CC1C3CCC4=CC(=O)C=CC4(C)[C@H]3C(O)CC12C (some centres not stated),69
2,CC(=O)OCC(=O)[C@@]12OC(C)(C)O[C@@H]1CC1C3CCC4=CC(=O)C=CC4(C)[C@H]3C(O)CC12C (some centres not stated),102
3,CC(=O)OCC(=O)[C@@]12N=C(C)O[C@@H]1CC1C3CCC4=CC(=O)C=CC4(C)[C@@]3(F)C(O)CC12C (some centres not stated),104
4,CC(=O)OCC(=O)[C@@]12ON(Cc3ccccc3)C[C@@H]1CC1C3CCC4=CC(=O)C=CC4(C)[C@@]3(F)C(O)CC12C (some centres not stated),62
5,CC(=O)OCC(=O)[C@@]12OC(C)(C)O[C@@H]1CC1C3CCC4=CC(=O)C=CC4(C)[C@@]3(F)C(O)CC12C (some centres not stated),117
6,CC(=O)OCC(=O)[C@@]12ON(C)C[C@@H]1CC1C3CCC4=CC(=O)C=CC4(C)[C@H]3C(O)CC12C (some centres not stated),75
7,CC(=O)OCC(=O)[C@@]12ON(C)C[C@@H]1CC1C3CCC4=CC(=O)C=CC4(C)[C@@]3(F)C(O)CC12C (some centres not stated),156
